Drawing on patent US20250009745A1, “CDK INHIBITOR” (SHANGHAI QILU PHARMACEUTICAL RESEARCH AND DEVELOPMENT …, priority 2021, published 2025), this text covers IC50 for 32 compounds.

Test in all cases: CDK enzymology experiment in vitro, capillary mobility shift assay (MSA)
What all share (format): biochemical

Test [1] has as its target T1, CDK6 (Homo sapiens, UniProt Q00534).
T1 construct: purchased Carna Company
The following applies: read-out: CDK6 (nM) inhibitory IC50.

Test [2] deals with T2, CDK1 (Homo sapiens, UniProt P06493).
T2 construct: purchased Carna Company
The following applies: read-out: CDK1 (nM) inhibitory IC50. The method in brief: (§1)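 Recombinant kinases tested against peptide substrates in 1× kinase buffer, with compound added as a 100-fold DMSO stock. Top concentration 1, 10 or 30 μM, 3-fold dilutions over 10 points, in duplicate. Substrate conversion read by Caliper EZ Reader, normalised to no-enzyme and no-compound controls, and IC50 fitted with a variable-slope log(inhibitor)–response model.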

Test [3] deals with T3, CDK2 (Homo sapiens, UniProt P24941).
T3 construct: purchased Carna Company
The note with it: read-out: CDK2 (nM) inhibitory IC50. A digest of the protocol: as §1

Test [4] addresses T4, CDK4 (Homo sapiens, UniProt P11802).
T4 construct: purchased Carna Company
The following applies: read-out: CDK4 (nM) inhibitory IC50. The method in brief:
as §1

Test [5] addresses T5, CDK9 (Homo sapiens, UniProt P50750).
T5 construct: purchased Carna Company
The following applies: read-out: CDK9 (nM) inhibitory IC50. The method in brief:
as §1

Test [6] addresses T6, CDK7 (Homo sapiens, UniProt P50613).
T6 construct: purchased Carna Company
The following applies: read-out: CDK7 (nM) inhibitory IC50. The method in brief: as §1

T5 sequence (P50750 whole entry): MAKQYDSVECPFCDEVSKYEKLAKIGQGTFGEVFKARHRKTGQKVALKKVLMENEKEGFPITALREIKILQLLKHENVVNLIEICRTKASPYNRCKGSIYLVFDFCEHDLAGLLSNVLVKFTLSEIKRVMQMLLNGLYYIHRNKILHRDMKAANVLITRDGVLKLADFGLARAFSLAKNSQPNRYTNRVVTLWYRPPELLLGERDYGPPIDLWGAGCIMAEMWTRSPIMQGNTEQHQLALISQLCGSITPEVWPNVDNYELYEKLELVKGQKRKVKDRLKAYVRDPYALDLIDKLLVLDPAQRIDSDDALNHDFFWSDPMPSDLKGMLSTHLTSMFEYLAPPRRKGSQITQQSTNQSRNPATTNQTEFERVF
T5 sequence (O60563 whole entry partner): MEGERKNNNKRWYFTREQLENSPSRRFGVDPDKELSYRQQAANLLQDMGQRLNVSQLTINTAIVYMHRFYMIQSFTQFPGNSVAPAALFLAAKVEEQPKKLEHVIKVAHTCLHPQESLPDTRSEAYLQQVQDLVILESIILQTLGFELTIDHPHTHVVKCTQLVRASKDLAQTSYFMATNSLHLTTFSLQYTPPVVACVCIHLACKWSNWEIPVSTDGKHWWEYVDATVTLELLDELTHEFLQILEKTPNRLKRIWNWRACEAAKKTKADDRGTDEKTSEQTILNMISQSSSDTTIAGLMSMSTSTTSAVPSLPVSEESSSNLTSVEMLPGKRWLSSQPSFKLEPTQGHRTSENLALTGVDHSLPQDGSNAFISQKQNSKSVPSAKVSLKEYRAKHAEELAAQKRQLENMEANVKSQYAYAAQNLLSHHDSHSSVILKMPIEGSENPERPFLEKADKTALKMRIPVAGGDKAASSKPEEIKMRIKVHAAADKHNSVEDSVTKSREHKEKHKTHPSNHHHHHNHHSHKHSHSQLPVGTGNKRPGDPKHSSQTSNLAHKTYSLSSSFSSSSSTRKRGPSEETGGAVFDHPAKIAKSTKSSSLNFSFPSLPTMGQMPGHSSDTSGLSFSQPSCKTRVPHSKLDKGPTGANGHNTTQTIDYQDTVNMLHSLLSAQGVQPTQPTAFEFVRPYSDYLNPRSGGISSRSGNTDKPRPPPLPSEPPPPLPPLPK
T2 sequence (P06493 whole entry): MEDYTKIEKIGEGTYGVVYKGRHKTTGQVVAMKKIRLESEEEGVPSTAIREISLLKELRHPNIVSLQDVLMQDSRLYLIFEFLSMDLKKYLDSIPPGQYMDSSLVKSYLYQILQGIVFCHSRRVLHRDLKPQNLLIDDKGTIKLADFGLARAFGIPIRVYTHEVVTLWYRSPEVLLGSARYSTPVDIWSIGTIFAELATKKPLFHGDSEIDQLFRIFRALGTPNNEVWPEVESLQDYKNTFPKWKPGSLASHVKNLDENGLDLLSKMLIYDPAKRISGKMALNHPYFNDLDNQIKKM
T2 sequence (P14635 whole entry partner): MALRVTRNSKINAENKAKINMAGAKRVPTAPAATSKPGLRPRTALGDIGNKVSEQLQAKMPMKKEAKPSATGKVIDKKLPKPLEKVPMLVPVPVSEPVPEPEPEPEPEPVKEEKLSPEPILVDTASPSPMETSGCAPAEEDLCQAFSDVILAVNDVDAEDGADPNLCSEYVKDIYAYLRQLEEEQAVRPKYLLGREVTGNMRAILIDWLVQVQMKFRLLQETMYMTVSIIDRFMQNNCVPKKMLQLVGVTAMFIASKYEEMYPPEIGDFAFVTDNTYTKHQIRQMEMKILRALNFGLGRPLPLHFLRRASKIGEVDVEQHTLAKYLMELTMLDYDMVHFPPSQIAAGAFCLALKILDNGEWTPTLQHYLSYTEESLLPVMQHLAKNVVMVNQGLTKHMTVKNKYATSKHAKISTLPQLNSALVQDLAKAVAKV
T1 sequence (Q00534 whole entry): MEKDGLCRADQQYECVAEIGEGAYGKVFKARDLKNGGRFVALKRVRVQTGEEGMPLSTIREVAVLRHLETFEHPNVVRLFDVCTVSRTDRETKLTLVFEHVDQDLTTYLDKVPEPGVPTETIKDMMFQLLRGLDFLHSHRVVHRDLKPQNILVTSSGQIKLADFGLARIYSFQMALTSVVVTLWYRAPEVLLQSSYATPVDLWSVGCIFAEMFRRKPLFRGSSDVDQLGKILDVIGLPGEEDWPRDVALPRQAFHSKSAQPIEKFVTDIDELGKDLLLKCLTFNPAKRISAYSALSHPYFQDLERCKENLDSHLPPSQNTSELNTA
T1 sequence (P30281 whole entry partner): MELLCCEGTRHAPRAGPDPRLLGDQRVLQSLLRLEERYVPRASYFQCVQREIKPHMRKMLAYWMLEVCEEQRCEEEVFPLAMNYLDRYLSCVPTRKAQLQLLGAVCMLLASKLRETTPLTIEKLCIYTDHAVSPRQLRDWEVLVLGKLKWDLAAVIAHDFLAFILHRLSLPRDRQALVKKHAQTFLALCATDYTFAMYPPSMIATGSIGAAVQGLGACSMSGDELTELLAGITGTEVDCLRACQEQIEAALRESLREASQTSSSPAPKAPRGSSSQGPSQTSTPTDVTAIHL
T6 sequence (P50613 whole entry): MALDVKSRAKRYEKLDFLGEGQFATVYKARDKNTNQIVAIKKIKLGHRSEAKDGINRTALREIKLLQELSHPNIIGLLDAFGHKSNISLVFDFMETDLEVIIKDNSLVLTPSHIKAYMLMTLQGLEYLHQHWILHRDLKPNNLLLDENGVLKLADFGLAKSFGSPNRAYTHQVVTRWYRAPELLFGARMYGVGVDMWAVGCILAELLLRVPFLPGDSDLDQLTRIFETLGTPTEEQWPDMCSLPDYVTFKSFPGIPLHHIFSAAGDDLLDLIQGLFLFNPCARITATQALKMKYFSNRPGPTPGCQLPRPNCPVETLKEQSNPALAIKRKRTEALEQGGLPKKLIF
T6 sequence (P51946 whole entry partner): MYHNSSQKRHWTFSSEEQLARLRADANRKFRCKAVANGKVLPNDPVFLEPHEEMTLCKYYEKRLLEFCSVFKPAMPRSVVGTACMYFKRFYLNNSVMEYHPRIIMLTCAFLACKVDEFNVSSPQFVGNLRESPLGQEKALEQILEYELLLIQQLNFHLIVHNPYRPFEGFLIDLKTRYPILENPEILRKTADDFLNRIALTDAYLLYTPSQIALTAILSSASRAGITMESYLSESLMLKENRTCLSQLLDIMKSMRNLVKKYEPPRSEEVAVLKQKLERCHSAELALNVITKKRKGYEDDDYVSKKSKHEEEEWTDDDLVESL
T6 sequence (P51948 whole entry partner): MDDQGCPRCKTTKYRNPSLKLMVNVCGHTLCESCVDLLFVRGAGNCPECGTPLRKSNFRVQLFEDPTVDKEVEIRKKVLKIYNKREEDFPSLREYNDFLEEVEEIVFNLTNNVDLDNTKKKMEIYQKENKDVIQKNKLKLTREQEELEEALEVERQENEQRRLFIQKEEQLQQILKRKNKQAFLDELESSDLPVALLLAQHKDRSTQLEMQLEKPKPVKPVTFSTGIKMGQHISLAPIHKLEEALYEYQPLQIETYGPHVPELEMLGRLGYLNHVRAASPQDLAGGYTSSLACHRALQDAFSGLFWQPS
T4 sequence (P11802 whole entry): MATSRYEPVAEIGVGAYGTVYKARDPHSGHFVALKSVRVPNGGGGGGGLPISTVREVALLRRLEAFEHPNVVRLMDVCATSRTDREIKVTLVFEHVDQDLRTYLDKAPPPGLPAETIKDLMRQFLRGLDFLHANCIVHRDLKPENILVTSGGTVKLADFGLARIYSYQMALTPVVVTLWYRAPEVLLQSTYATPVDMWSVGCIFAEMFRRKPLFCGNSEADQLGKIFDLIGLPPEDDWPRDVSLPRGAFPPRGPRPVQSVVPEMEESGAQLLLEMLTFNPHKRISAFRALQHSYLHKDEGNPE
T4 sequence (P30281 whole entry partner): as the sequence (P30281 whole entry partner) above

As a reminder, the IC50 is the concentration needed to halve the response being measured. Take `CS(=O)(=O)N1CCC(Nc2cc(NC3CCCC3)c(C#N)cn2)CC1` [Example 2]: the IC50 in test [1] lay within 10 to 50 nM; in test [2] it was 100 to 1000 nM; in test [3], 10 to 50 nM; in test [4], 10 to 50 nM.
For `Cc1cc(S(=O)(=O)N2CCC(Nc3ncc(C(F)(F)F)c(O[C@H]4CCOC4)n3)CC2)ccc1C1=CCNCC1` [Compound 154], the IC50 was 0.5 to 2.5 nM in test [1]; 10 to 50 nM in test [2]; 100 to 1000 nM in test [5]; 0.5 to 2.5 nM in test [3]; 0.5 to 2.5 nM in test [4]; 10 to 50 nM in test [6].
Take `CS(=O)(=O)N1CCC(Nc2ncc(C#N)c(NC3CCCC3)n2)CC1` [Example 1]: the IC50 in test [1] was in the range of 10 to 50 nM; in test [2] it was 100 to 1000 nM; in test [3], 10 to 50 nM; in test [4], 10 to 50 nM.
As to `O=S(=O)(c1ccc(N2CCNCC2)cc1)N1CCC(Nc2ncc(C(F)(F)F)c(O[C@H]3CCOC3)n2)CC1` [Example 116], the IC50 in test [1] was 0.5 to 2.5 nM; in test [2], 2.5 to 10 nM; in test [5], 100 to 1000 nM; in test [3] it was less than 0.5 nM; in test [4], 0.5 to 2.5 nM; in test [6], 10 to 50 nM.
For the compound `O=S(=O)(c1ccc([C@H]2CCNC2)cc1)N1CCC(Nc2ncc(C(F)(F)F)c(O[C@H]3CCOC3)n2)CC1` (single isomer, unassigned) [Compound 152], the IC50 in test [1] is 0.5 to 2.5 nM; in test [2], 2.5 to 10 nM; in test [5], 100 to 1000 nM; in test [3] it was 0.5 to 2.5 nM; in test [4], 0.5 to 2.5 nM; in test [6], 10 to 50 nM.
In the case of `Cn1cc(S(=O)(=O)N2CCC(Nc3ncc(C(F)(F)F)c(NC4CCCC4)n3)CC2)cn1` [Compound 32], the IC50 in test [1] lay within 10 to 50 nM; in test [2] it was 10 to 50 nM; in test [3], 0.5 to 2.5 nM; in test [4] it was 10 to 50 nM.
As to `Cn1cnc(S(=O)(=O)N2CCC(Nc3ncc(C#N)c(NC4CCCC4)n3)CC2)c1` [Compound 34], the IC50 was in the range of 10 to 50 nM in test [1]; 10 to 50 nM in test [2]; 100 to 1000 nM in test [5]; 0.5 to 2.5 nM in test [3]; 2.5 to 10 nM in test [4]; 100 to 1000 nM in test [6].
Turning to `O=S(=O)(c1ccc(C2=CCNCC2)cc1)N1CCC(Nc2ncc(C(F)(F)F)c(O[C@H]3CCOC3)n2)CC1` [Example 100, (S)-4-((Tetrahydrofuran-3-yl)oxy)-N-(1-((4-(1,2,3,6-tetrahydropyridin-4-yl)phenyl)sulfonyl)piperidin-4-yl)-5-(trifluoromethyl)pyrimidin-2-amine], the IC50 in test [1] is 0.5 to 2.5 nM; in test [2] it was 2.5 to 10 nM; in test [5] it was 100 to 1000 nM; in test [3], less than 0.5 nM; in test [4], 0.5 to 2.5 nM; in test [6] it was 2.5 to 10 nM.
Take `O=S(=O)(c1ccc(N2CCNCC2)nc1)N1CCC(Nc2ncc(C(F)(F)F)c(O[C@H]3CCOC3)n2)CC1` [Compound 153]: the IC50 was 0.5 to 2.5 nM in test [1]; 2.5 to 10 nM in test [2]; 100 to 1000 nM in test [5]; less than 0.5 nM in test [3]; 0.5 to 2.5 nM in test [4]; 2.5 to 10 nM in test [6].
As to `O=S(=O)(c1ccc(C2=CCCNC2)cc1)N1CCC(Nc2ncc(C(F)(F)F)c(O[C@H]3CCOC3)n2)CC1` [Example 112, (S)-4-((Tetrahydrofuran-3-yl)oxy)-N-(1-((4-(1,2,5,6-tetrahydropyridin-3-yl)phenyl)sulfonyl)piperidin-4-yl)-5-(trifluoromethyl)pyrimidin-2-amine], the IC50 in test [1] is 0.5 to 2.5 nM; in test [2], 2.5 to 10 nM; in test [5], 100 to 1000 nM; in test [3], less than 0.5 nM; in test [4] it was 0.5 to 2.5 nM; in test [6], 2.5 to 10 nM.
In the case of `CC(C)Nc1nc(NC2CCN(S(C)(=O)=O)CC2)ncc1C#N` [Compound 28], the IC50 in test [1] was 50 to 100 nM; in test [2], 100 to 1000 nM; in test [3] it was 10 to 50 nM; in test [4], 50 to 100 nM.
Consider `O=S(=O)(c1ccc(Br)cc1)N1CCC(Nc2ncc(C(F)(F)F)c(C=C3CCCC3)n2)CC1` [Compound 200], for which the IC50 in test [3] was 10 to 50 nM; in test [4], 100 to 1000 nM; in test [6] it was 50 to 100 nM.
As to `Cn1cc(S(=O)(=O)N2CCC(Nc3ncc(C#N)c(N[C@H]4CC[C@@H](O)C4)n3)CC2)cn1` (racemic) [Example 11], the IC50 lay in the range of 10 to 50 nM in test [1], 10 to 50 nM in test [2], 0.5 to 2.5 nM in test [3] and 10 to 50 nM in test [4].
In the case of `Cn1cc(-c2ccc(S(=O)(=O)N3CCC(Nc4ncc(C#N)c(NC5CCCC5)n4)CC3)cc2)cn1` [Compound 49], the IC50 in test [1] was 0.5 to 2.5 nM; in test [2], 10 to 50 nM; in test [3] it was 0.5 to 2.5 nM; in test [4] it was 2.5 to 10 nM.
Take `Cn1cnc(S(=O)(=O)N2CCC(Nc3ncc(C(F)(F)F)c(NC4CCCC4)n3)CC2)c1` [Compound 35]: the IC50 lay within 50 to 100 nM in test [1], 10 to 50 nM in test [2], 0.5 to 2.5 nM in test [3] and 10 to 50 nM in test [4].
Take `Cn1cc(S(=O)(=O)N2CCC(Nc3ncc(C#N)c(N[C@@H]4CCC[C@H]4O)n3)CC2)cn1` [Compound 45]: the IC50 was 100 to 1000 nM in test [1], 10 to 50 nM in test [2], 2.5 to 10 nM in test [3] and 10 to 50 nM in test [4].
As to `O=S(=O)(c1ccc(C2CCNC2)cc1)N1CCC(Nc2ncc(C(F)(F)F)c(O[C@H]3CCOC3)n2)CC1` (some centres unmarked) [Compound 145], the IC50 was 0.5 to 2.5 nM in test [1], less than 0.5 nM in test [3] and 0.5 to 2.5 nM in test [4].
For the compound `O=S(=O)(c1ccc(C2=CCNCC2)cn1)N1CCC(Nc2ncc(C(F)(F)F)c(O[C@H]3CCOC3)n2)CC1` [Compound 176], the IC50 was 0.5 to 2.5 nM in test [1], less than 0.5 nM in test [3] and 0.5 to 2.5 nM in test [4].
As to `O=S(=O)(c1ccc(C23CCNCC2C3)cc1)N1CCC(Nc2ncc(C(F)(F)F)c(O[C@H]3CCOC3)n2)CC1` (some centres unmarked) [Compound 159], the IC50 in test [1], in test [3] and in test [4] was 0.5 to 2.5 nM throughout.
Regarding `N#Cc1cnc(NC2CCN(S(=O)(=O)c3ccc(C4=CCNCC4)cc3)CC2)nc1O[C@H]1CCOC1` [Compound 104], the IC50 in test [1] was in the range of 0.5 to 2.5 nM; in test [3] it was 0.5 to 2.5 nM; in test [4], 2.5 to 10 nM.
Regarding `O=S(=O)(c1ccc(N2CC3CNCC3C2)nc1)N1CCC(Nc2ncc(C(F)(F)F)c(O[C@H]3CCOC3)n2)CC1` (some centres unmarked) [Compound 190], the figures for the IC50 in test [1], in test [3] and in test [4] were 0.5 to 2.5 nM, less than 0.5 nM and 0.5 to 2.5 nM, respectively.
`C[C@@H]1CN(c2ccc(S(=O)(=O)N3CCC(Nc4ncc(C(F)(F)F)c(O[C@H]5CCOC5)n4)CC3)cc2)C[C@@H](C)N1` [Compound 208]: the IC50 lay within 0.5 to 2.5 nM in test [1], 0.5 to 2.5 nM in test [3] and 2.5 to 10 nM in test [4].
For the compound `C[C@@H]1CN(c2ccc(S(=O)(=O)N3CCC(Nc4ncc(C(F)(F)F)c(O[C@H]5CCOC5)n4)CC3)cn2)C[C@@H](C)N1` [Compound 207], the IC50 in test [1] lay within 0.5 to 2.5 nM; in test [3], 0.5 to 2.5 nM; in test [4] it was 2.5 to 10 nM.
As for `N#Cc1cnc(NC2CCN(S(=O)(=O)c3ccc(C4=CCNCC4)cc3)CC2)nc1NC1CCCC1(F)F` (centres unmarked) [Compound 135], the IC50 in test [1], in test [3] and in test [4] was 0.5 to 2.5 nM throughout.
`Cn1cc(-c2ccc(S(=O)(=O)N3CCC(Nc4ncc(C#N)c(N[C@H]5CC[C@H](O)C5)n4)CC3)cc2)cn1` (single isomer, unassigned) [Compound 83]: the IC50 in test [1], in test [3] and in test [4] was 0.5 to 2.5 nM each time.
`C[C@@H]1CN(c2ccc(S(=O)(=O)N3CCC(Nc4ncc(C(F)(F)F)c(O[C@H]5CCOC5)n4)CC3)cc2)C[C@H](C)N1` [Example 169]: the results for the IC50 in test [1], in test [3] and in test [4] were 0.5 to 2.5 nM, less than 0.5 nM and 0.5 to 2.5 nM, respectively.
Consider `O=S(=O)(c1ccc(N2CC3CCC(C2)N3)nc1)N1CCC(Nc2ncc(C(F)(F)F)c(O[C@H]3CCOC3)n2)CC1` [Compound 182], for which the IC50 in test [1] was 0.5 to 2.5 nM; in test [3], less than 0.5 nM; in test [4], 0.5 to 2.5 nM.
`N#CC1CCN(c2ccc(S(=O)(=O)N3CCC(Nc4ncc(C(F)(F)F)c(O[C@H]5CCOC5)n4)CC3)cc2)CC1` [Compound 143]: the half-maximal inhibitory concentration (IC50) lay in the range of 10 to 50 nM in test [1], 0.5 to 2.5 nM in test [3] and 2.5 to 10 nM in test [4].
Taken in the same sequence, the figures for `CN(C)CCn1cc(S(=O)(=O)N2CCC(Nc3ncc(C(F)(F)F)c(O[C@H]4CCOC4)n3)CC2)cn1` [Compound 157] were 10 to 50 nM, less than 0.5 nM and 2.5 to 10 nM.
Taken in the same sequence, the figures for `O=S(=O)(c1ccc(C2CCCNC2)cc1)N1CCC(Nc2ncc(C(F)(F)F)c(O[C@H]3CCOC3)n2)CC1` (stereo partly drawn) [Example 113, N-(1-((4-(Piperidin-3-yl)phenyl)sulfonyl)piperidin-4-yl)-4-(((S)-tetrahydrofuran-3-yl)oxy)-5-(trifluoromethyl)pyrimidin-2-amine] were 0.5 to 2.5 nM, 0.5 to 2.5 nM and 0.5 to 2.5 nM.
For `O=S(=O)(c1ccc(C2=CCNCC2)cc1)N1CCC(Nc2ncc(C(F)(F)F)c(NC3CCCC3(F)F)n2)CC1` (centres unmarked) [Compound 136] the same measures were 0.5 to 2.5 nM, 0.5 to 2.5 nM and 2.5 to 10 nM.
As to `N#Cc1cnc(NC2CCN(S(=O)(=O)c3ccc(N4CCNCC4)cc3)CC2)nc1NC1CCCC1` [Compound 90], the IC50 in test [1], in test [3] and in test [4] was 0.5 to 2.5 nM throughout.
